Experimental data from patent publication US10167262B2, “Herbicidal substituted 3-arylpyrazoles” (FMC CORPORATION, priority 2014, dated 2019).

Tests used:
Experiment in all cases: Test A pre-/postemergence greenhouse herbicide test, visual injury rating 0-100
Format in all cases: in vivo
[1] = tested on: giant foxtail (Setaria faberii)
From the text: (§1) Seeds of plant species selected from barnyardgrass (Echinochloa crus-galli), large (Lg) crabgrass (Digitaria sanguinalis), giant foxtail (Setaria faberii), morningglory (Ipomoea spp.), pigweed (Amaranthus retroflexus), velvetleaf (Abutilon theophrasti), wheat (Triticum aestivum), and corn (Zea mays) were planted into a blend of loam soil and sand and treated preemergence with a directed soil spray using test chemicals formulated in a non-phytotoxic solvent mixture which included a surfactant. At the same time these species were also treated with postemergence applications of test chemicals formulated in the same manner. Plants ranged in height from 2 to 10 cm and were in the one- to two-leaf stage for the postemergence treatment. Treated plants and untreated controls were maintained in a greenhouse for approximately 10 days, after which time all treated plants were compared to untreated controls and visually evaluated for injury. Plant response ratings, summarized in Table A, are based on a 0 to 100 scale where 0 is no effect and 100 is complete control. A dash (-) response means no test result.

[2] = tested on: morningglory (Ipomoea spp.)
From the text: as §1

[3] = tested on: pigweed (Amaranthus retroflexus)
From the text: as §1

[4] = tested on: barnyardgrass (Echinochloa crus-galli)
From the text: as §1

[5] = tested on: wheat (Triticum aestivum)
From the text: as §1

[6] = tested on: velvetleaf (Abutilon theophrasti)
From the text: as §1

[7] = tested on: corn (Zea mays)
From the text: as §1

[8] = tested on: large (Lg) crabgrass (Digitaria sanguinalis)
From the text: as §1

Clc1cc(Cl)cc(-c2n[nH]cc2C(=NNc2ccccc2)c2ccccc2)c1 [Compound 33]
Plant response rating (0 to 100 scale), Foxtail, Giant ([1]; Postemergence, 1000 g ai/ha): 0
Plant response rating (0 to 100 scale), Foxtail, Giant ([1]; Preemergence, 1000 g ai/ha): 0
Plant response rating (0 to 100 scale), Morningglory ([2]; Postemergence, 1000 g ai/ha): 0
Plant response rating (0 to 100 scale), Morningglory ([2]; Preemergence, 1000 g ai/ha): 0
Plant response rating (0 to 100 scale), Pigweed ([3]; Postemergence, 1000 g ai/ha): 100
Plant response rating (0 to 100 scale), Pigweed ([3]; Preemergence, 1000 g ai/ha): 100
Plant response rating (0 to 100 scale), Barnyardgrass ([4]; Postemergence, 1000 g ai/ha): 0
Plant response rating (0 to 100 scale), Barnyardgrass ([4]; Preemergence, 1000 g ai/ha): 0
Plant response rating (0 to 100 scale), Wheat ([5]; Postemergence, 1000 g ai/ha): 0
Plant response rating (0 to 100 scale), Wheat ([5]; Preemergence, 1000 g ai/ha): 0
Plant response rating (0 to 100 scale), Velvetleaf ([6]; Postemergence, 1000 g ai/ha): 100
Plant response rating (0 to 100 scale), Velvetleaf ([6]; Preemergence, 1000 g ai/ha): 80
Plant response rating (0 to 100 scale), Corn ([7]; Postemergence, 1000 g ai/ha): 0
Plant response rating (0 to 100 scale), Corn ([7]; Preemergence, 1000 g ai/ha): 0
Plant response rating (0 to 100 scale), Crabgrass, Large ([8]; Postemergence, 1000 g ai/ha): 0
Plant response rating (0 to 100 scale), Crabgrass, Large ([8]; Preemergence, 1000 g ai/ha): 0

FC(F)(F)Cn1cc(C(=NNc2ccccc2)c2ccccc2)c(-c2cc(Cl)cc(Cl)c2)n1 [Compound 34]
Plant response rating (0 to 100 scale), Foxtail, Giant ([1]; Postemergence, 125 g ai/ha): 0
Plant response rating (0 to 100 scale), Foxtail, Giant ([1]; Postemergence, 500 g ai/ha): 0
Foxtail, Giant plant response rating (0 = no effect, 100 = complete control) ([1]; Preemergence, 125 g ai/ha): 0
Plant response rating (0 to 100 scale), Foxtail, Giant ([1]; Preemergence, 500 g ai/ha): 0
Plant response rating (0 to 100 scale), Morningglory ([2]; Postemergence, 125 g ai/ha): 0
Plant response rating (0 to 100 scale), Morningglory ([2]; Postemergence, 500 g ai/ha): 0
Morningglory plant response rating (0 = no effect, 100 = complete control) ([2]; Preemergence, 125 g ai/ha): 0
Plant response rating (0 to 100 scale), Morningglory ([2]; Preemergence, 500 g ai/ha): 0
Plant response rating (0 to 100 scale), Pigweed ([3]; Postemergence, 125 g ai/ha): 0
Plant response rating (0 to 100 scale), Pigweed ([3]; Postemergence, 500 g ai/ha): 20
Pigweed plant response rating (0 = no effect, 100 = complete control) ([3]; Preemergence, 125 g ai/ha): 0
Plant response rating (0 to 100 scale), Pigweed ([3]; Preemergence, 500 g ai/ha): 0
Plant response rating (0 to 100 scale), Barnyardgrass ([4]; Postemergence, 125 g ai/ha): 0
Plant response rating (0 to 100 scale), Barnyardgrass ([4]; Postemergence, 500 g ai/ha): 0
Barnyardgrass plant response rating (0 = no effect, 100 = complete control) ([4]; Preemergence, 125 g ai/ha): 0
Plant response rating (0 to 100 scale), Barnyardgrass ([4]; Preemergence, 500 g ai/ha): 0
Plant response rating (0 to 100 scale), Wheat ([5]; Postemergence, 125 g ai/ha): 0
Plant response rating (0 to 100 scale), Wheat ([5]; Postemergence, 500 g ai/ha): 0
Wheat plant response rating (0 = no effect, 100 = complete control) ([5]; Preemergence, 125 g ai/ha): 0
Plant response rating (0 to 100 scale), Wheat ([5]; Preemergence, 500 g ai/ha): 0
Plant response rating (0 to 100 scale), Velvetleaf ([6]; Postemergence, 125 g ai/ha): 10
Plant response rating (0 to 100 scale), Velvetleaf ([6]; Postemergence, 500 g ai/ha): 30
Velvetleaf plant response rating (0 = no effect, 100 = complete control) ([6]; Preemergence, 125 g ai/ha): 0
Plant response rating (0 to 100 scale), Velvetleaf ([6]; Preemergence, 500 g ai/ha): 0
Plant response rating (0 to 100 scale), Corn ([7]; Postemergence, 125 g ai/ha): 0
Plant response rating (0 to 100 scale), Corn ([7]; Postemergence, 500 g ai/ha): 0
Corn plant response rating (0 = no effect, 100 = complete control) ([7]; Preemergence, 125 g ai/ha): 0
Plant response rating (0 to 100 scale), Corn ([7]; Preemergence, 500 g ai/ha): 0
Plant response rating (0 to 100 scale), Crabgrass, Large ([8]; Postemergence, 125 g ai/ha): 0
Plant response rating (0 to 100 scale), Crabgrass, Large ([8]; Postemergence, 500 g ai/ha): 0
Crabgrass, Large plant response rating (0 = no effect, 100 = complete control) ([8]; Preemergence, 125 g ai/ha): 0
Plant response rating (0 to 100 scale), Crabgrass, Large ([8]; Preemergence, 500 g ai/ha): 0

CCn1cc(C(=NNc2ccccc2)c2ccccc2)c(-c2cc(Cl)cc(Cl)c2)n1 [Compound 36]
Plant response rating (0 to 100 scale), Foxtail, Giant ([1]; Postemergence, 125 g ai/ha): 0
Plant response rating (0 to 100 scale), Foxtail, Giant ([1]; Postemergence, 500 g ai/ha): 0
Foxtail, Giant plant response rating (0 = no effect, 100 = complete control) ([1]; Preemergence, 125 g ai/ha): 0
Plant response rating (0 to 100 scale), Foxtail, Giant ([1]; Preemergence, 500 g ai/ha): 0
Plant response rating (0 to 100 scale), Morningglory ([2]; Postemergence, 125 g ai/ha): 0
Plant response rating (0 to 100 scale), Morningglory ([2]; Postemergence, 500 g ai/ha): 0
Morningglory plant response rating (0 = no effect, 100 = complete control) ([2]; Preemergence, 125 g ai/ha): 0
Plant response rating (0 to 100 scale), Morningglory ([2]; Preemergence, 500 g ai/ha): 0
Plant response rating (0 to 100 scale), Pigweed ([3]; Postemergence, 125 g ai/ha): 30
Plant response rating (0 to 100 scale), Pigweed ([3]; Postemergence, 500 g ai/ha): 80
Pigweed plant response rating (0 = no effect, 100 = complete control) ([3]; Preemergence, 125 g ai/ha): 0
Plant response rating (0 to 100 scale), Pigweed ([3]; Preemergence, 500 g ai/ha): 70
Plant response rating (0 to 100 scale), Barnyardgrass ([4]; Postemergence, 125 g ai/ha): 0
Plant response rating (0 to 100 scale), Barnyardgrass ([4]; Postemergence, 500 g ai/ha): 0
Barnyardgrass plant response rating (0 = no effect, 100 = complete control) ([4]; Preemergence, 125 g ai/ha): 0
Plant response rating (0 to 100 scale), Barnyardgrass ([4]; Preemergence, 500 g ai/ha): 0
Plant response rating (0 to 100 scale), Wheat ([5]; Postemergence, 125 g ai/ha): 0
Plant response rating (0 to 100 scale), Wheat ([5]; Postemergence, 500 g ai/ha): 0
Wheat plant response rating (0 = no effect, 100 = complete control) ([5]; Preemergence, 125 g ai/ha): 0
Plant response rating (0 to 100 scale), Wheat ([5]; Preemergence, 500 g ai/ha): 0
Plant response rating (0 to 100 scale), Velvetleaf ([6]; Postemergence, 125 g ai/ha): 70
Plant response rating (0 to 100 scale), Velvetleaf ([6]; Postemergence, 500 g ai/ha): 90
Velvetleaf plant response rating (0 = no effect, 100 = complete control) ([6]; Preemergence, 125 g ai/ha): 20
Plant response rating (0 to 100 scale), Velvetleaf ([6]; Preemergence, 500 g ai/ha): 20
Plant response rating (0 to 100 scale), Corn ([7]; Postemergence, 125 g ai/ha): 0
Plant response rating (0 to 100 scale), Corn ([7]; Postemergence, 500 g ai/ha): 0
Corn plant response rating (0 = no effect, 100 = complete control) ([7]; Preemergence, 125 g ai/ha): 0
Plant response rating (0 to 100 scale), Corn ([7]; Preemergence, 500 g ai/ha): 0
Plant response rating (0 to 100 scale), Crabgrass, Large ([8]; Postemergence, 125 g ai/ha): 0
Plant response rating (0 to 100 scale), Crabgrass, Large ([8]; Postemergence, 500 g ai/ha): 0
Crabgrass, Large plant response rating (0 = no effect, 100 = complete control) ([8]; Preemergence, 125 g ai/ha): 0
Plant response rating (0 to 100 scale), Crabgrass, Large ([8]; Preemergence, 500 g ai/ha): 0

Brc1cc(Br)cc(-c2n[nH]cc2C2(c3ccccc3)SCCS2)c1 [Compound 62]
Plant response rating (0 to 100 scale), Foxtail, Giant ([1]; Postemergence, 1000 g ai/ha): 0
Plant response rating (0 to 100 scale), Foxtail, Giant ([1]; Preemergence, 1000 g ai/ha): 0
Plant response rating (0 to 100 scale), Pigweed ([3]; Postemergence, 1000 g ai/ha): 100
Plant response rating (0 to 100 scale), Pigweed ([3]; Preemergence, 1000 g ai/ha): 80
Plant response rating (0 to 100 scale), Barnyardgrass ([4]; Postemergence, 1000 g ai/ha): 0
Plant response rating (0 to 100 scale), Barnyardgrass ([4]; Preemergence, 1000 g ai/ha): 0
Plant response rating (0 to 100 scale), Wheat ([5]; Postemergence, 1000 g ai/ha): 0
Plant response rating (0 to 100 scale), Wheat ([5]; Preemergence, 1000 g ai/ha): 0
Plant response rating (0 to 100 scale), Velvetleaf ([6]; Postemergence, 1000 g ai/ha): 90
Plant response rating (0 to 100 scale), Velvetleaf ([6]; Preemergence, 1000 g ai/ha): 60
Plant response rating (0 to 100 scale), Corn ([7]; Postemergence, 1000 g ai/ha): 0
Plant response rating (0 to 100 scale), Corn ([7]; Preemergence, 1000 g ai/ha): 0
Plant response rating (0 to 100 scale), Crabgrass, Large ([8]; Postemergence, 1000 g ai/ha): 0
Plant response rating (0 to 100 scale), Crabgrass, Large ([8]; Preemergence, 1000 g ai/ha): 0
